Experimental data: patent US20180092866A1, “SUBSTITUTED N-([1,1'-BIPHENYL]-3-YL)-[1,1'-BIPHENYL]-3-CARBOXAMIDE ANALOGS AS INHIBITORS FOR BETA-CATENIN/B-CELL LYMPHOMA 9 INTERACTIONS” (University of Utah Research Foundation, priority 2015, published 2018)
Counter-ions that a name gives are not always drawn.

Columns and labels:
[1] = molecular target: T1, β-catenin/BCL9 protein-protein interactions (Homo sapiens, UniProt P35222); assay: AlphaScreen competitive inhibition assay, wild-type β-catenin/BCL9; type: binding; settings: for relative inhibitory potency for β-catenin/BCL9 PPIs (in words): comparison with named compound; for Ki: wild-type β-catenin (residues 138-686)/biotinylated BCL9 26-mer, Ki derived from IC50, mean ± SD; for fold less potent than 17: relative to compound 17
T1 construct: C-terminally His6-tagged wild-type or mutant β-catenin (residues 138-686) proteins; made in house; host or cells: E. coli BL21 DE3
T1 sequence (P35222 138-686): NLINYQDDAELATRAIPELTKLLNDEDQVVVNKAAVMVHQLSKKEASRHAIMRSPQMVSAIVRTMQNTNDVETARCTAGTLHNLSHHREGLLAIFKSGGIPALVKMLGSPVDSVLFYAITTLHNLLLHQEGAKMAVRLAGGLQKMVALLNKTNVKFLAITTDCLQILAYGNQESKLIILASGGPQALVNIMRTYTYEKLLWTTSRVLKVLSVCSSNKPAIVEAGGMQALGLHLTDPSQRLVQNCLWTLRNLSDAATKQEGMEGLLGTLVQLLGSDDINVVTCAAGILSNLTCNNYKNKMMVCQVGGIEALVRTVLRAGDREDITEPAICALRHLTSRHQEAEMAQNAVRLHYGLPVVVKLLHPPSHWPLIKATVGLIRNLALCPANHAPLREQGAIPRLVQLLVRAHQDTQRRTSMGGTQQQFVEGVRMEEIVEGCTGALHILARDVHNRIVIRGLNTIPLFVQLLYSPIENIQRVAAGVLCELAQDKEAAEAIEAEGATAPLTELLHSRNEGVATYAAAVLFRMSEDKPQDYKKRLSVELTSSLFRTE
Experimental: The purity of the wild-type and mutant β-catenin proteins was all greater than 95% as determined by the SDS-PAGE gel analysis. Both the wild-type and mutant β-catenin proteins are stable under the testing conditions. Native non-denaturing gel electrophoresis was performed to confirm the homogeneity of the purified proteins. Experiments were performed in white opaque 384-well plates from PerkinElmer, and the samples were read on a Synergy 2 plate reader (Biotek) with a sensitivity setting of 200 using AlphaScreen protocol with excitation at 680 nm and emission at 570 nm. All dilutions were made in 1×assay buffer containing 25 mM HEPES (pH=7.0), 100 mM NaCl, 0.01% Triton X-100, and 0.1% BSA. In the AlphaScreen competitive inhibition assay, 40 nM of C-terminally His6-tagged wild-type or mutant β-catenin (residues 138-686) proteins was incubated with 5 nM of N-terminal biotinylated human BCL9 26-mer (residues 350-375) for 30 min at 4° C., and then different concentrations of the tested inhibitors in the assay buffer were added to make a final volume of 20 μL. The mixture was incubated at 4° C. for 2 h. The donor and acceptor beads were added to a final concentration of 10 μg/mL in 25 μL of assay buffer. The mixture was incubated at 4° C. for 1 h. The IC50 value was determined by nonlinear least-square analysis of GraphPad Prism 5.0. […] The Ki values were derived from the IC50 values by a reported method (Nikolovska-Coleska et al. (2004) Anal. Biochem. […]: 261-273). Experiments were performed in triplicate and carried out in the presence of 1% DMSO.

[2] = molecular target: T2, β-catenin/E-cadherin PPIs (Homo sapiens, UniProt P35222); assay: AlphaScreen selectivity assay, β-catenin/BCL9 versus β-catenin/E-cadherin; type: binding
T2 construct: β-Catenin or its mutants (residues 138-686) was cloned into a pET-28b vector; made in house; host or cells: E. coli BL21 DE3
T2 sequence (P35222 138-686): T1 sequence (P35222 138-686)
Text: Human BCL9 (residues 350-375), N-terminally biotinylated human BCL9 (residues 350-375), N-terminally fluorescein-labeled human BCL9 (residues 350-375), and N-terminally biotinylated human E-cadherin (residues 824-877) were synthesized by InnoPep Inc. (San Diego, Calif., www.innopep.com). All synthesized peptides were purified by HPLC with purity >95%. The structures were validated by LC/MS. The sequences are shown in Table 2 (Ahx, 6-aminohexanoic acid).
The purity of the wild-type and mutant β-catenin proteins was all greater than 95% as determined by the SDS-PAGE gel analysis. Both the wild-type and mutant β-catenin proteins are stable under the testing conditions. Native non-denaturing gel electrophoresis was performed to confirm the homogeneity of the purified proteins. Experiments were performed in white opaque 384-well plates from PerkinElmer, and the samples were read on a Synergy 2 plate reader (Biotek) with a sensitivity setting of 200 using AlphaScreen protocol with excitation at 680 nm and emission at 570 nm. All dilutions were made in 1×assay buffer containing 25 mM HEPES (pH=7.0), 100 mM NaCl, 0.01% Triton X-100, and 0.1% BSA. […] The IC50 value was determined by nonlinear least-square analysis of GraphPad Prism 5.0. […]

## O=C(NCCCC(=O)N1CCNCC1)c1ccc(-c2cc(C(=O)Nc3ccc(O[C@H]4CCNC4)c(-c4ccc(F)cc4)c3)ccc2O[C@H]2CCNC2)cc1 [Compound 29, 4-(4-(5′-((4′-fluoro-6-((S)-pyrrolidin-1-ium-3-yloxy)-[1,1′-biphenyl]-3-yl)carbamoyl)-2′-((S)-pyrrolidin-1-ium-3-yloxy)-[1,1′-biphenyl]-4-ylcarboxamido)butanoyl) piperazin-1-ium]
[1]; AlphaScreen assay
  relative inhibitory potency for β-catenin/BCL9 PPIs (in words): comparable inhibitory potency for β-catenin/BCL9 PPIs as 21
[1]
  Ki: 2.1 ± 0.432 µM
[2]
  selectivity for β-catenin/BCL9 over β-catenin/E-cadherin PPIs (in words): much higher selectivity

## O=C(Nc1cnc(O[C@H]2CCNC2)c(-c2ccc(F)cc2)c1)c1cnc(O[C@H]2CCNC2)c(-c2ccc(F)c(F)c2)c1 [Compound 84c, 5-(3,4-difluorophenyl)-N-(5-(4-fluorophenyl)-6-((S)-pyrrolidin-3-yloxy)pyridin-3-yl)-6-((S)-pyrrolidin-3-yloxy)nicotinamide dihydrochloride]
[1]
  Ki: 68.6 ± 14.9 µM

## O=C(Nc1ccc(O[C@H]2CCNC2)c(-c2cccc(-c3nn[nH]n3)c2)c1)c1ccc(O[C@H]2CCNC2)c(-c2ccc(F)c(F)c2)c1 [Compound 91k, 3′,4′-Difluoro-6-((S)-pyrrolidin-3-yloxy)-N-(6-((S)-pyrrolidin-3-yloxy)-3′-(2h-tetrazol-5-yl)-[1,1′-biphenyl]-3-yl)-[1,1′-biphenyl]-3-carboxamide dihydrochloride]
[1]
  Ki: 3.91 ± 0.734 µM

## Cl.NCCOc1ccc(C(=O)Nc2cccc(-c3ccc(F)cc3)c2)cc1-c1ccc(F)cc1 [Compound 9, 2-((4′-Fluoro-5-((4′-fluoro-[1,1′-biphenyl]-3-yl)carbamoyl)-[1,1′-biphenyl]-2-yl)oxy) ethanaminium chloride]
[1]; AlphaScreen assay
  relative inhibitory potency for β-catenin/BCL9 PPIs (in words): higher potency than 14
[1]
  Ki: 33.6 ± 4.34 µM

## O=C(Nc1ccc(O[C@H]2CCNC2)c(-c2ccc(F)nc2)c1)c1ccc(O[C@H]2CCNC2)c(-c2ccc(F)c(F)c2)c1 [Compound 91m, 3′,4′-Difluoro-N-(3-(6-fluoropyridin-3-yl)-4-((S)-pyrrolidin-3-yloxy)phenyl)-6-((S)-pyrrolidin-3-yloxy)-[1,1′-biphenyl]-3-carboxamide dihydrochloride]
[1]
  Ki: 124 ± 10.4 µM

## COC(=O)c1ccc(OCCNC(=O)OC(C)(C)C)c(Br)c1 [Compound 30, Methyl-3-bromo-4-(2-((tert-butoxycarbonyl)amino)ethoxy) benzoate]
[1]
  Ki: 156 ± 3.96 µM

## O=C(Nc1ccc(O[C@H]2CCNC2)c(-c2ccc(F)cc2)c1)c1ccc(O[C@H]2CCNC2)c(-c2ccc3cc(F)ccc3c2)c1 [Compound 96]
[1]
  Ki: 7.17 ± 1.3 µM

## O=C(O)c1cccc(-c2cc(NC(=O)c3ccc(O[C@H]4CCNC4)c(-c4ccc(F)c(F)c4)c3)ccc2O[C@H]2CCNC2)c1 [Compound 98]
[1]
  Ki: 180 ± 4.84 µM

## O=C(Nc1ccc(OCCO)c(-c2ccc(F)cc2)c1)c1ccc(OCCO)c(-c2ccc(F)c(F)c2)c1 [Compound 18, 3′,4′-Difluoro-N-(4′-fluoro-6-(2-hydroxyethoxy)-[1,1′-biphenyl]-3-yl)-6-(2-hydroxyethoxy)-[1,1′-biphenyl]-3-carboxamide]
[1]; AlphaScreen assay
  fold less potent than 17: 6 fold
[1]
  Ki: 36.8 ± 2.72 µM

## NC(=O)c1ccc(CCCO)c(-c2ccc(F)cc2)c1 [Compound 8, 4′-Fluoro-6-(3-hydroxypropyl)-[1,1′-biphenyl]-3-carboxamide]
[1]; AlphaScreen assay
  relative inhibitory potency for β-catenin/BCL9 PPIs (in words): less potent than 6

## O=C(Nc1ccc(O[C@@H]2CCNC2)c(-c2ccc(F)cc2)c1)c1ccc(O[C@@H]2CCNC2)c(-c2ccc(F)c(F)c2)c1 [Compound 26, (R)-3-((3′,4′-difluoro-5-((4′-fluoro-6-(((R)-pyrrolidin-1-ium-3-yl)oxy)-[1,1′-biphenyl]-3-yl)carbamoyl)-[1,1′-biphenyl]-2-yl)oxy) pyrrolidin-1-ium chloride]
[1]
  Ki: 4.08 ± 0.355 µM

## O=C(Nc1ccc(O[C@H]2CCNC2)c(-c2ccc(F)cc2)c1)c1ccc(O[C@H]2CCNC2)c(-c2ccc(F)nc2)c1 [Compound 95, N-(4′-fluoro-6-((S)-pyrrolidin-3-yloxy)-[1,1′-biphenyl]-3-yl)-3-(6-fluoropyridin-3-yl)-4-((S)-pyrrolidin-3-yloxy)benzamide dihydrochloride]
[1]
  Ki: 244 ± 13.3 µM

## O=C(O)c1ccc(-c2cc(NC(=O)c3ccc(O[C@H]4CCNC4)c(-c4ccc(F)c(F)c4)c3)ccc2O[C@H]2CCNC2)cc1 [Compound 99]
[1]
  Ki: 156 ± 3.96 µM

## N#Cc1ccc(-c2cc(NC(=O)c3ccc(O[C@H]4CCNC4)c(-c4ccc(F)c(F)c4)c3)ccc2O[C@H]2CCNC2)cc1 [Compound 91f, N-(4′-cyano-6-((S)-pyrrolidin-3-yloxy)-[1,1′-biphenyl]-3-yl)-3′,4′-difluoro-6-((S)-pyrrolidin-3-yloxy)-[1,1′-biphenyl]-3-carboxamide dihydrochloride]
[1]
  Ki: 29.5 ± 5.77 µM

## Cc1ccccc1-c1cc(NC(=O)c2ccc(O[C@H]3CCNC3)c(-c3ccc(F)c(F)c3)c2)ccc1O[C@H]1CCNC1 [Compound 91a, 3′,4′-Difluoro-N-(2′-methyl-6-((S)-pyrrolidin-3-yloxy)-[1,1′-biphenyl]-3-yl)-6-((S)-pyrrolidin-3-yloxy)-[1,1′-biphenyl]-3-carboxamide dihydrochloride]
[1]
  Ki: 36 ± 7.21 µM

## NCCOc1ccc(C(=O)Nc2cccc(-c3ccc(F)c(F)c3)c2)cc1-c1ccc(F)cc1 [Compound 10, 2-((5-((3′,4′-Difluoro-[1,1′-biphenyl]-3-yl)carbamoyl)-4′-fluoro-[1,1′-biphenyl]-2-yl)oxy) ethanaminium chloride]
[1]
  Ki: 27.7 ± 3.67 µM

## O=C(Nc1ccc(O[C@H]2CCNC2)c(-c2ccc(F)cc2)c1)c1ccc(O[C@H]2CCNC2)c(-c2ccc3ccsc3c2)c1 [Compound 97]
[1]
  Ki: 9.5 ± 1.12 µM

## Cc1ccc(NC(=O)c2ccc(C)c(-c3ccc(F)c(F)c3)c2)cc1-c1ccc(F)cc1 [Compound 19, 3′,4′-Difluoro-N-(4′-fluoro-6-methyl-[1,1′-biphenyl]-3-yl)-6-methyl-[1,1′-biphenyl]-3-carboxamide]
[1]; AlphaScreen assay
  fold less potent than 17: 65 fold

## CC(=O)Nc1cccc(-c2cc(NC(=O)c3ccc(O[C@H]4CCNC4)c(-c4ccc(F)c(F)c4)c3)ccc2O[C@H]2CCNC2)c1 [Compound 103]
[1]
  Ki: 96.4 ± 9.78 µM

## NCCOc1ccc(C(=O)Nc2cccc(-c3ccc(Cl)cc3F)c2)cc1-c1ccc(F)cc1 [Compound 12, 2-((5-((4′-Chloro-2′-fluoro-[1,1′-biphenyl]-3-yl)carbamoyl)-4′-fluoro-[1,1′-biphenyl]-2-yl)oxy) ethanaminium chloride]
[1]
  Ki: 149 ± 5.69 µM

## Cc1ccc(-c2cc(NC(=O)c3ccc(O[C@H]4CCNC4)c(-c4ccc(F)c(F)c4)c3)ccc2O[C@H]2CCNC2)cc1 [Compound 91c, 3′,4′-Difluoro-N-(4′-methyl-6-((S)-pyrrolidin-3-yloxy)-[1,1′-biphenyl]-3-yl)-6-((S)-pyrrolidin-3-yloxy)-[1,1′-biphenyl]-3-carboxamide dihydrochloride]
[1]
  Ki: 41.4 ± 9.16 µM

## NC(=O)c1ccc(-c2cc(NC(=O)c3ccc(O[C@H]4CCNC4)c(-c4ccc(F)c(F)c4)c3)ccc2O[C@H]2CCNC2)cc1 [Compound 91h, N-(4′-carbamoyl-6-((S)-pyrrolidin-3-yloxy)-[1,1′-biphenyl]-3-yl)-3′,4′-difluoro-6-((S)-pyrrolidin-3-yloxy)-[1,1′-biphenyl]-3-carboxamide dihydrochloride]
[1]
  Ki: 51.7 ± 6.15 µM

## CS(=O)(=O)Nc1cccc(-c2cc(NC(=O)c3ccc(O[C@H]4CCNC4)c(-c4ccc(F)c(F)c4)c3)ccc2O[C@H]2CCNC2)c1 [Compound 102]
[1]
  Ki: 126 ± 10.3 µM

## Cl.NCCCc1ccc(C(N)=O)cc1-c1ccc(F)cc1 [Compound 6, 3-(5-Carbamoyl-4′-fluoro-[1,1′-biphenyl]-2-yl) propan-1-aminium chloride]
[1]; AlphaScreen assay, relative to compound 4
  fold more potent than 4: 5 fold
